Experimental data reported in PubChem BioAssay AID2305 (GlaxoSmithKline (GSK), 2010).

These molecules were tested on P. falciparum 3D7 growth, pLDH absorbance (assay: P. falciparum 3D7 growth inhibition, dose response, strain 3D7 (AID 2305)).

SMILES | IC50 [nM]
O=C(Nc1ccc(-c2nc3ccccc3[nH]2)cc1)C1CCCN(CC2CC2)C1 (stereo not drawn) | 950
Cc1cccc(CCCNC(=O)CN(c2cccc(C(F)(F)F)c2)S(=O)(=O)c2ccc(C(F)(F)F)cc2)c1 | 680
CCOC(=O)C(=CNc1ccc(Cc2cnc(N)nc2N)cc1CC)C(=O)OCC | 1140
O=C(Nc1ccc([N+](=O)[O-])cc1)Nc1cc(C(F)(F)F)ccc1F | 1070
O=C(NCc1ccc2c(c1)OCO2)c1nn(CCN2CCC(N3CCCC3)CC2)cc1-c1ccc(Cl)c(Cl)c1 | 940
CC(C)CN(Cc1c(O)ccc2[nH]c(-c3ccc(F)cc3F)nc12)CC(C)C | 800
COCCCNc1nc2cc(OC)c(OC)cc2c2nc(-c3ccccc3)nn12 | 190
Clc1cc(Br)ccc1-c1ccc(CNCC2CCNCC2)o1 | 1510
Nc1nc2ncn(COC(COCc3ccccc3)COCc3ccccc3)c2c(=O)[nH]1 (tested in a mixture with another compound) | 710
CC(=O)NCCNc1nccc(N2CCc3ncnc(Nc4ccc(OCc5cccc(F)c5)c(Cl)c4)c3C2)n1 | 130
O=C(NC1CCCC1)c1ccc(N2CCC(NCc3cc4cc(Cl)ccc4[nH]3)CC2)cc1 | 1220
Cc1cc(N[C@@H](Cc2ccccc2)C(=O)NCCc2ccccc2)nc(NCc2ccccc2C)n1 | 880
COc1cc(F)c2ncc(Cl)c(CCN3CCC(NCc4cc5c(cn4)OCCO5)CC3)c2c1 | 480
O=C1C(c2ccccc2)=C(Nc2cccc(OC(F)(F)C(F)F)c2)c2ccccc21 | 180
CCc1cn2c3c(cc(C(=O)N[C@@H](Cc4ccccc4)[C@H](O)CNC4CCOCC4)cc13)N(C)S(=O)(=O)C2 | 90
COc1ccc(CNCc2cccc(-c3ccc(-c4nc5ccc(C(F)(F)F)cc5[nH]4)cc3)c2)cc1 | 130
CN1CC(c2ccc(Cl)c(Cl)c2)OC1=N (stereo not drawn) | 280
COc1ccc(Nc2nc(NCc3ccc(-n4ccnc4)cc3)cc(-c3ccc(OC)cc3)n2)cc1 | 830
COc1ccc(CN2CCCC(N3CC4(OC3=O)c3ccccc3-c3ccccc34)C2)c(O)c1 (stereo not drawn) | 870

SMILES | IC50 [nM]
COc1ccc(CNC(=O)NC2CCN(c3ccnc(Nc4cc(OC)c(OC)c(OC)c4)n3)C2)cc1 (stereo not drawn) | 950
Cc1cc(NCCC(=O)NCCOc2ccccc2)nc(NCc2ccccc2C)n1 | 870
COc1ccc(CCNC(=O)c2cc(C)ccc2O)cc1-c1ccc(C(C)(C)C)cc1 | 480
Nc1c(Cl)cc(C(O)CNCCCCCOCCc2ccc3ccccc3n2)cc1Cl (stereo not drawn) | 1020
CCc1c(C)nc(-n2nc(C)cc2NC(=O)C2c3ccccc3Oc3ccccc32)[nH]c1=O | 950
Cc1ccc(-n2ncc(C(=O)Nc3cc(Cl)cc(Cl)c3)c2C2CCNCC2)cc1C | 550
CN1CCN(c2ccnc3ccc(NC(=O)Nc4ccc(-c5ccncc5)c5ccccc45)cc23)CC1 | 310
CCn1c(SCC(=O)Nc2cc(C(F)(F)F)ccc2Cl)nc2ccccc2c1=O | 400
CCc1ccc(C(=O)Nc2cccc(CN3CCCN(Cc4ccc(O)cc4)CC3)c2)cc1 | 1030
COc1ccc(S(=O)(=O)N2CCCC(C)C2)cc1N1CCN(C(=O)c2ccc([N+](=O)[O-])o2)CC1 (stereo not drawn) | 1250
Nc1nc(N)c2c(ccc3c2ccn3Cc2ccc(F)cc2)n1 | 10
CN(C)CCN1CCN(Cc2cccc(-c3csc(-c4nc5ccccc5[nH]4)c3)c2)CC1 | 400
COc1cccc(CCc2c(CCNCCCCCCNCCc3ccccc3)ccc(OC)c2OC)c1 | 720
O=C(NCC1CCN(C/C=C/c2ccccc2)CC1)Nc1ccc(Oc2ccccc2)cc1 | 1040
CC(C)N1CCN(c2ccc(OCCCCN3CCN(c4cccc(Cl)c4Cl)CC3)c(C(F)(F)F)c2)CC1 | 820
CC1CCC(C[C@@H](C(=O)N[C@@H](CCC(=O)N2CCCCC2)C(=O)Nc2nccs2)[C@H](C(C)C)N(O)C=O)CC1 (stereo partly drawn) | 620
CN1CCC(NC(=O)c2cccc(Nc3cc(Nc4cccc(Br)c4)ncn3)c2)CC1 | 1010
CC(=O)c1ccc(NC(=O)Nc2ccc(N(C)c3ccnc(NC4CC4)n3)cc2)cc1 | 800
COc1ccc2nccc([C@@H](O)CN3CCC(NCc4nc5c(F)cc(F)cc5[nH]4)CC3)c2c1 | 570
